Experimental data reported in patent publication US5250546A, “Amino-alcohol derivatives and processes for their preparation” (Nippon Chemiphar Co., Ltd., priority 1984, dated 1993).
Structures can show the parent of a compound that is named as a salt. Where two headings read alike, the source gives them in different places.

Legend:
[1] = tested on: glutamic acid at neuromuscular junctions of crayfish (opener muscles of the first walking legs); assay: Blocking effects against glutamic acid at neuromuscular junctions of crayfish (L-glutamic acid-induced depolarization); type: cell-based; conditions: 5 min; suppression rate of depolarization by L-glutamic acid (10^-4 M); 5-minute pretreatment with test compound 2×10^-4 M
Excerpt: The opener muscles of the first walking legs of crayfish were used as experimental materials. The neuromuscular sample was held in a bath in which a physiological solution [composition (mM): NaCl (195), CaCl2 (18), KCl (5.4), tris-maleate buffer (pH 7.5; 10), glucose (11)] for use with the crayfish was perfused at room temperature and at a constant flow rate. A glass micro-electrode filled with a 3M-KCl solution was inserted in a central part of the muscle fiber to intracellularly record changes in the potential of the muscular cell membrane.
The blocking effect of each test compound against glutamic acid was evaluated in terms of the suppression rate to depolarization which was induced by bath-applying L-glutamic acid (10^-4 M) in a 5-minute pretreatment with a solution of the test compound (2×10^-4 M).

[2] = tested on: anemic decerebrate rigidity (Wistar male rats); assay: Effects on anemic decerebrate rigidity (EMG of M. triceps brachii); type: in vivo; conditions: Rattus norvegicus, iv, 10 min, read-out: Suppression rate (rigidity, EMG pulse area)
Procedure: An anemic decerebrate rigidity sample was prepared principally in accordance with the procedure of Fukuda et al. [Japan. […] Wistar male rats (body weight: 270 to 350 g) were held on their backs and incised at their cervices under etherization. After the trachea and common carotid arteries were exposed, the trachea was cannulated and the bilateral common carotid arteries and esophagus were then double-ligated and cut. Thereafter, its occipital bone was exposed through which a circular hole was bored to double-ligate the centrally extending basilar artery. As each rat started coming out of anesthetization, its front limbs became rigid. Measurement was conducted by recording electromyographic (EMG) response from the muscle of the forelimb (M. triceps brachii) of the rat in the rigid state. The EMG pulses were converted to accumulated values every 10 seconds and recorded as a histogram on a recorder.
The effect of each test compound on the rigidity was evaluated in terms of the suppression rate. This rate was calculated first by determining the area of a decreased EMG pulse part on the histogram upon passage of 10 minutes after administration of a physiological saline solution of each test compound (3 mg/kg) through the femoral vein and then in accordance with the following equation.
A: EMG pulse area when no test compound was administered (control).

[3] = Acute toxicity, up-and-down method; conditions: mouse, in vivo; iv (caudal vein), ddN male mice
Procedure: Using ddN male mice, the acute toxicity level of each test compound was determined in accordance with an up-and-down method. Some of the test compounds used were dissolved in physiological saline and administered through the caudal vein.

SMILES | inhibition at 200 µM [1] | also measured
CC(C)C[C@H](NCCN1CCCCC1)[C@H](O)c1ccccc1 (racemic) [Compound 29, (1RS,2SR)-4-methyl-1-phenyl-2-(2-piperidinoethylamino)pentan-1-ol dihydrochloride] | 93% | –
Cc1cccc([C@@H](O)[C@H](CC(C)C)NCCCN2CCCCC2)c1 (racemic) [Compound 49, (1RS,2SR)-4-methyl-1-(3-methylphenyl)-2-(3-piperidinopropylamino)pentan-1-ol dihydrochloride] | 100% | –
CC(C)C[C@@H](NCCCN1CCCCC1)[C@H](O)c1ccccc1 [Compound 20, (1R,2R)-4-methyl-1-phenyl-2-(3-piperidinopropylamino)pentan-1-ol dihydrochloride] | 98% | –
Cc1ccccc1[C@@H](O)[C@H](CC(C)C)NCCCN1CCCCC1 (racemic) [Compound 47, (1RS,2SR)-4-methyl-1-(2-methylphenyl)-2-(3-piperidinopropylamino)pentan-1-ol dihydrochloride] | 100% | –
C[C@H](NCCN(C)C)[C@H](O)c1ccccc1 (racemic) [Comparative compound 4, (1RS,2SR)-2-(2-dimethylaminoethylamino)-1-phenylpropan-1-ol dihydrochloride, reference compound] | – | inhibition in vivo at 3 mg/kg [2]: 1.1%
C[C@H](NCCN1CCCC1)[C@H](O)c1ccccc1 (racemic) [Comparative compound 2, (1RS,2SR)-1-phenyl-2-(2-pyrrolidinoethylamino)propan-1-ol dihydrochloride, reference compound] | – | inhibition in vivo at 3 mg/kg [2]: 2.2%
CC(C)C[C@H](NCCCN1CCCCC1)[C@H](O)c1ccccc1.Cl.Cl [Compound 17, (1R,2S)-4-methyl-1-phenyl-2-(3-piperidinopropylamino)pentan-1-ol dihydrochloride] | 100% | LD50 [3]: 15.4 mg/kg
CC(C)CC[C@H](NCCCN1CCOCC1)[C@H](O)c1ccccc1 (racemic) [Compound 37, (1RS,2SR)-5-methyl-2-(3-morpholinopropylamino)-1-phenylhexan-1-ol dihydrochloride] | 99% | –
C[C@H](NCCN1CCOCC1)[C@H](O)c1ccccc1 (racemic) [Comparative compound 3, (1RS,2SR)-2-(2-morpholinoethylamino)-1-phenylpropan-1-ol dihydrochloride, reference compound] | – | inhibition in vivo at 3 mg/kg [2]: 1%
CC(C)C[C@@H](NCCCN1CCCCC1)[C@@H](O)c1ccccc1 [Compound 18, (1S,2R)-4-methyl-1-phenyl-2-(3-piperidinopropylamino)pentan-1-ol dihydrochloride] | 97% | –
CCCCCC[C@H](NCCCN1CCCCC1)[C@H](O)c1ccccc1 (racemic) [Compound 7, (1RS,2SR)-1-phenyl-2-(3-piperidinopropylamino)octan-1-ol dihydrochloride] | 98% | –
CC(C)C[C@H](NCCCN1CCCCC1)[C@H](O)c1ccc(F)cc1 (racemic) [Compound 55, (1RS,2SR)-1-(4-fluorophenyl)-4-methyl-2-(3-piperidinopropylamino)pentan-1-ol dihydrochloride] | 99% | –
CC(C)C[C@H](NCCCN1CCCCC1)[C@@H](O)c1ccccc1.Cl.Cl [Compound 19, (1S,2S)-4-methyl-1-phenyl-2-(3-piperidinopropylamino)pentan-1-ol dihydrochloride] | 100% | LD50 [3]: 28.4 mg/kg
Cc1ccc([C@@H](O)[C@H](CC(C)C)NCCCN2CCCCC2)cc1 (racemic) [Compound 51, (1RS,2SR)-4-methyl-1-(4-methylphenyl)-2-(3-piperidinopropylamino)pentan-1-ol dihydrochloride] | 100% | –
CC(C)C[C@@H](NCCCN1CCCCC1)[C@H](O)c1ccc(Cl)cc1 (racemic) [Compound 58, (1RS,2RS)-1-(4-chlorophenyl)-4-methyl-2-(3-piperidinopropylamino)pentan-1-ol dihydrochloride] | 97% | –
CC(C)C[C@H](NCCCN1CCCCC1)[C@H](O)c1ccc(Cl)cc1 (racemic) [Compound 57, (1RS,2SR)-1-(4-chlorophenyl)-4-methyl-2-(3-piperidinopropylamino)pentan-1-ol dihydrochloride] | 99% | –
CO[C@H](c1ccccc1)[C@H](CCC(C)C)NCCCN1CCCCC1 (racemic) [Compound 59, (1RS,2SR)-5-methyl-1-phenyl-2-(3-piperidinopropylamino)hexan-1-ol methylether dihydrochloride] | 97% | –
CC(C)C[C@H](NCCN1CCCC1)[C@H](O)c1ccccc1 (racemic) [Compound 31, (1RS,2SR)-4-methyl-1-phenyl-2-(2-pyrrolidinoethylamino)pentan-1-ol dihydrochloride] | 91% | –
CC(C)C[C@H](NCCCN1CCCC1)[C@H](O)c1ccccc1 (racemic) [Compound 23, (1RS,2SR)-4-methyl-1-phenyl-2-(3-pyrrolidinopropylamino)pentan-1-ol dihydrochloride] | 97% | –
Cc1ccc(C(=O)C(C)CN2CCCCC2)cc1 (stereo not drawn) [Comparative compound 5, tolperisone hydrochloride, reference compound] | – | inhibition in vivo at 3 mg/kg ([2]; 3 mg/kg through the femoral vein, 10 minutes after administration): 4.8%
COc1ccc([C@@H](O)[C@H](CC(C)C)NCCCN2CCCCC2)cc1 (racemic) [Compound 53, (1RS,2SR)-1-(4-methoxyphenyl)-4-methyl-2-(3-piperidinopropylamino)pentan-1-ol dihydrochloride] | 91% | –
Cc1ccc([C@@H](O)[C@@H](CC(C)C)NCCCN2CCCCC2)cc1 (relative stereo) [Compound 52, (1RS,2RS)-4-methyl-1-(4-methylphenyl)-2-(3-piperidinopropylamino)pentan-1-ol dihyrochloride] | 93% | –
CC(C)CC[C@H](NCCCN(C)C)[C@H](O)c1ccccc1 (racemic) [Compound 39, (1RS,2SR)-2-(3-dimethylaminopropylamino)-5-methyl-1-phenylhexan-1-ol dihydrochloride] | 100% | –
CCCCC[C@@H](NCCCN1CCCCC1)[C@H](O)c1ccccc1 (racemic) [Compound 6, (1RS,2RS)-1-phenyl-2-(3-piperidinopropylamino)heptan-1-ol dihydrochloride] | 100% | –
CCCCCCCC[C@H](NCCCN1CCCCC1)[C@H](O)c1ccccc1 (racemic) [Compound 11, (1RS,2SR)-1-phenyl-2-(3-piperidinopropylamino)decan-1-ol dihydrochloride] | 100% | –
CC(C)C[C@H](NCCCN1CCOCC1)[C@H](O)c1ccccc1 (racemic) [Compound 25, (1RS,2SR)-4-methyl-2-(3-morpholinopropylamino)-1-phenylpentan-1-ol dihydrochloride] | 90% | –
CC(C)C[C@H](NCCCN(C)C)[C@H](O)c1ccccc1 (racemic) [Compound 27, (1RS,2SR)-2-(3-dimethylaminopropylamino)-4-methyl-1-phenylpentan-1-ol dihydrochloride] | 95% | –
CCN(CCCN1CCCCC1)[C@@H](CCC(C)C)[C@H](O)c1ccccc1 (racemic) [Compound 65, (1RS,2SR)-2-[ethyl-(3-piperidinopropyl)amino]-5-methyl-1-phenylhexan-1-ol dihydrochloride] | 99% | –
